Here are results for five compounds from PMC7501730, “Discovery of novel small molecule inhibitors of S100P with in vitro anti-metastatic effects on pancreatic cancer cells” (European Journal of Medicinal Chemistry, 2020).

Where two headings read alike, the source gives them in different places. Bounds are passed on as bounds.

Series [1] addresses T1, S100P-RAGE interaction (Homo sapiens, UniProt P25815).
T1 construct: His tag (N); made in house; host or cells: Escherichia coli BL21*
T1 sequence (P25815 1-95): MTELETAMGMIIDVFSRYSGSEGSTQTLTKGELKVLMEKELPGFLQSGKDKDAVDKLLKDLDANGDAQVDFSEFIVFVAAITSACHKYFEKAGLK
As to the kind of experiment: ELISA of S100P-RAGE binding inhibition. Conditions: for ELISA inhibition: concentration with significant inhibition of S100P-RAGE binding, asterisks = significance by one-way ANOVA; for IC50: read-out: Estimated IC50. The protocol:
The purchased computational screening hits were subjected to initial biological testing for inhibition of S100P-RAGE binding (ELISA), with cromolyn as positive control, using an adaptation of the reported ELISA for S100 family members.
Fig. 2 Effects of compounds 1–14 on S100P binding to RAGE. Human S100P (2 μM) coated wells were incubated with increasing concentrations of the compound tested, in triplicate, and exposed to human RAGE-Fc (100 nM) followed by goat anti-human secondary antibody to detect RAGE bound S100P. Data are compared to S100P/RAGE binding with no inhibitor (DMSO, 100%) and are presented as mean ± SEM; data is significant by one way ANOVA, where ∗ = p < 0.05, ∗∗ = p < 0.01 and ∗∗∗ = p < 0.001; n = 9 from 3 plates.
To generate human S100P recombinant protein, a pQE-30 ([…]) plasmid encoding S100P with N-terminal histidine tags (gifted by Dr Igor Barsukov, Liverpool University, UK), was transformed into BL21∗ competent Escherichia coli cells. Recombinant protein was purified using a HisTrap Nickel-nitrilotriacetic acid (Ni-NTA) agarose column (GE Healthcare, UK).
Purified recombinant S100P (2μM/well) in phosphate buffer (PBS; 137 mM NaCl, 2.7 mM KCl, 10 mM Na2HPO4, 1.8 mM KH2PO4, pH 7.4; supplemented with 1 mM CaCl2, 10 μM ZnCl2, and 0.5 mM MgCl2) was used for coating a 96 well plate (NunclonDelta, Fisher), and incubated overnight at 37 °C.
Following washing, S100P non-specific binding sites were blocked with 1% bovine serum albumin (BSA; Fisher, UK) in PBS for 2 h at 37 °C. Following three washes, S100P was incubated with increasing concentrations of compounds, in parallel to cromolyn and DMSO treated wells, all in triplicate. Then 30 nM recombinant human receptor for advanced glycation end products (rh/RAGE-Fc; R&D Systems) was added and incubated for 1 h at 37 °C. Controls included a negative control (S100P protein, no RAGE-Fc), a positive control (S100P protein plus RAGE), and vehicle control (0.001% DMSO in PBS) were included in each plate. After three washes in PBS, all wells were exposed to goat anti-human HRP conjugate (1:1000; Millipore) for 1 h at 37 °C in order to detect bound receptors. Subsequent to washes, wells were incubated for 20 min in the dark with 3,3′,5,5′-tetramethylbenzidene (TMB) substrate (Sigma, UK). Plates were read at 450 nm using a Multiskan Ascent spectrophotometer (Fisher Scientific, UK). All sample readings were normalized to the positive control (S100P plus RAGE-Fc). Statistical analysis was performed and graphs plotted using the GraphPad Prism software in the following way: One Way ANOVA was used to compare the effects of concentration of each compound to the effects of vehicle control (DMSO), and p values of <0.05 were considered statistically significant. A post hoc analysis was conducted using Dunnetts multiple comparisons test; results are indicated by ∗ = p < 0.05; ∗∗ = p < 0.01 and ∗∗∗ = p < 0.001.

In series [2] the test system is BxPC-3 cells (S100P-expressing). The series is described as follows: LDH release cytotoxicity assay, BxPC-3. It is filed as cell-based, Human. Conditions: BxPC-3, 10 μM, over three days incubation, compared to vehicle control.
Method: Metabolic activity and cytotoxicity/cytolysis were measured with the MTS (CellTiter® 96 AQueous One Solution assay, Promega) and LDH release (CytoTox-ONE™ Homogeneous Membrane Integrity assay, Promega) assays respectively, in S100P-expressing (BxPC-3) and S100P-negative (Panc-1) cell lines, at a compound concentration of 10 μM. Cromolyn was used as a positive control.
1 × 10^5 Panc-1 cells and 1x10^5 BxPC-3 cells were plated and allowed to adhere for 24 h; the cells were treated with cromolyn or the hit compounds for up to 3 days. MTS (CellTiter® 96 AQueous One Solution assay, Promega) and LDH release (CytoTox-ONE™ Homogeneous Membrane Integrity assay, Promega) assays were carried out every 24 h for a total of 3 days. MTS data was calculated in the following manner: OD for background absorbance was subtracted and all samples normalized to untreated cells in order to ascertain whether any compound-dependent effect occurred.
(§3) Since formazan formation is proportional to LDH release, data was calculated by subtracting the OD background and plotting the mean ± SEM.
10^5 BxPC3 cells were treated with 10 µM hit compounds for 24 hours, and the effect on LDH staining for each time point measured by fluorescence microplate reader.
Series [3] deals with BxPC-3 cells (S100P-positive). The series is described as follows: Transwell Matrigel invasion assay, BxPC-3. In kind it is cell-based, Human. Conditions: 10% FBS chemoattractant.
Method: The effect of the S100P-binding hit compounds to inhibit cell invasion in S100P-expressing cells in vitro was measured via a Transwell invasion assay. In this assay, cells invade through the matrigel on upper Transwell chamber towards a lower chamber containing a chemoattractant.
Data is shown as mean ± SEM number of invasive cells as counted under the microscope (x100).
The Transwell invasion assay (Fisher Scientific, Germany) was performed using chambers with polyethylene terephthalate (PET) membrane filters with 8 μm pore size coated on the upper side with Matrigel (a layer of extracellular matrix (ECM) to mimic the process of the ECM invasion.
BxPC-3 and Panc-1 cells were cultured as described above for 24 h, were re-suspended and diluted in the appropriate serum-free medium to a seeding density of 2 × 10^5 cells/mL and added to the upper chambers of the Transwell invasion chambers. DMEM and RPMI-1640 media were supplemented with 10% fetal bovine serum (FBS; Sigma, USA) to act as a chemoattractant. […]
Cells that had passed through the matrigel coated membrane to the lower surface were fixed and stained with Diff-Quik stain kit (Fisher, USA) according to the manufacturer’s instructions. […] The number of invaded cells were counted in five different fields of view using the ImageJ 1.50i software (windows version of NIH Image, http://rsb.info.nih.gov/nih-image/). […]
The test system of series [4] is BxPC-3 cells. As to the kind of experiment: LDH release from cells in upper Transwell chamber, BxPC-3. In kind it is cell-based, Human. Conditions: BxPC-3, 48 h; hit compounds 10 μM, cromolyn 10, 100 and 300 μM. The protocol: (§1) In order to exclude any possibility that reduced cell invasiveness was due to cell death during the time period of the assay, the viability of cells in the upper Transwell® chamber was assessed via measurement of LDH release. […] (Supplementary Data).
(§2) Figure S2: No significant difference in cell toxicity, measured by LDH release, is observed between treated and untreated cells in the Transwell® invasion assay. Cytotoxicity was measured using the medium recovered from the upper chamber of each Transwell ® chamber which contained BxPC-3 (A) and Panc-1 (B) cells treated with cromolyn (10 µM, 100 µM, and 300 µM) and hit compounds (10 µM) and incubated for 48 h. Data are the mean ± SEM of three independent experiments (n=3). One-way ANOVA assessed significance, and Dunnett post-hoc test is denoted by ns=P>0.05 in comparison to untreated control.

Series [5] relates to Panc-1 cells (S100P-negative). As to the kind of experiment: LDH release cytotoxicity assay, Panc-1. In kind it is cell-based, Human. Conditions: Panc-1, 10 μM, over three days incubation, compared to vehicle control.
Method: Metabolic activity and cytotoxicity/cytolysis were measured with the MTS (CellTiter® 96 AQueous One Solution assay, Promega) and LDH release (CytoTox-ONE™ Homogeneous Membrane Integrity assay, Promega) assays respectively, in S100P-expressing (BxPC-3) and S100P-negative (Panc-1) cell lines, at a compound concentration of 10 μM. Cromolyn was used as a positive control. […]
1 × 10^5 Panc-1 cells and 1x10^5 BxPC-3 cells were plated and allowed to adhere for 24 h; the cells were treated with cromolyn or the hit compounds for up to 3 days. […] MTS data was calculated in the following manner: OD for background absorbance was subtracted and all samples normalized to untreated cells in order to ascertain whether any compound-dependent effect occurred.
as §3
10^5 Panc- 1 cells were treated with 10 µM hit compounds for 24 hours, and the effect on LDH staining for each time point measured by fluorescence microplate reader.
For series [6], the system named is Panc-1 cells. The series is described as follows: LDH release from cells in upper Transwell chamber, Panc-1. It is filed as cell-based, Human. Conditions: Panc-1, 48 h; hit compounds 10 μM, cromolyn 10, 100 and 300 μM. As for the experimental part: as §1, §2
[7] abbreviates: Table 2, ELISA, analog series of hit 4.

On to `O=C(O)c1cc(=O)c2c(OCC(O)COc3cccc4oc(C(=O)O)cc(=O)c34)cccc2o1` [cromolyn], for which the “concentration with significant inhibition of S100P-RAGE binding” value in series [1] (ELISA) is on record as no less than 100 nM. Moreover, the “maximum inhibition of S100P-RAGE binding” value in series [1] (ELISA) is recorded as 56%. The “cytotoxicity (LDH release)” value in series [2] and in series [5] was “neither the hit compounds nor cromolyn exhibited cytotoxicity” throughout. Further, the “inhibition of cell invasion to the lower chamber” value in series [3] (BxPC-3, 10 μM, 48 h) was “did not exhibit a statistically significant effect”. For the same compound, the “concentration with significant inhibition of invasion” value in series [3] (BxPC-3, 48 h) was no less than 100 µM. In addition, the “LDH release of cells in upper Transwell chamber” value in series [4] and in series [6] was “no significant increase in LDH release” throughout.

For orientation: melting point means the temperature, or range, at which the solid turns liquid. Compound `O=C1C2C3c4ccccc4C([N+](=O)[O-])(c4ccccc43)C2C(=O)N1c1cccc(F)c1` (centres unmarked) [Compound 4b, 13-(3-fluorophenyl)-9-nitro-9,10-dihydro-9,10-[3,4]epipyrroloanthracene-12,14-dione] displayed a melting point of 241 to 243 °C. In addition, in series [1] (ELISA), the “concentration with significant inhibition of S100P-RAGE binding” value is no more than 100 nM. This compound returned an ELISA inhibition in series [1] (Table 2) of 100 nM∗.

One may read the IC50 as the midpoint of a concentration-inhibition curve. Compound `O=C1C2C3c4ccccc4C(c4ccccc43)C2C(=O)N1c1ccc(F)cc1` (centres unmarked) [Compound 4u, 13-(4-fluorophenyl)-9,10-dihydro-9,10-[3,4]epipyrroloanthracene-12,14-dione] showed a melting point of 250 to 253 °C. In series [1] (ELISA), the “concentration with significant inhibition of S100P-RAGE binding” value is recorded as no more than 100 nM. The IC50 in series [1] (setting [7]) is 4.15 nM. The same compound had an ELISA inhibition in series [1] (Table 2) of 10 nM∗.

Regarding `O=C(O)c1ccc(N2C(=O)C3C4c5ccccc5C([N+](=O)[O-])(c5ccccc54)C3C2=O)cc1` (centres unmarked) [Compound 4f, 4-(9-Nitro-12,14-dioxo-9,10-dihydro-9,10-[3,4]epipyrroloanthracen-13-yl)benzoic acid], the melting point lay in the range of 344 to 345 °C. In series [1] (ELISA), the “concentration with significant inhibition of S100P-RAGE binding” value is given as no more than 100 nM. Also, the IC50 in series [1] (setting [7]) was 0.482 nM. In addition, the ELISA inhibition in series [1] (Table 2) was less than 10 nM∗∗∗.

`O=C(O)c1cccc(N2C(=O)C3C4c5ccccc5C([N+](=O)[O-])(c5ccccc54)C3C2=O)c1` (centres unmarked) [Compound 4, 3-(9-Nitro-12,14-dioxo-9,10-dihydro-9,10-[3,4]epipyrroloanthracen-13-yl)benzoic acid] yielded a melting point of 271 to 272 °C. Further, the “concentration with significant inhibition of S100P-RAGE binding” value in series [1] (ELISA) is no less than 10 nM. In addition, the 50% inhibitory concentration (IC50) in series [1] (Table 1, ELISA, human S100P 2 μM coated wells, human RAGE-Fc) is 22.7 nM. This compound also came in with an ELISA inhibition in series [1] (Table 2) of 10 nM∗∗.
